In ChEMBL document CHEMBL1806441, “Discovery and synthesis of a new class of opioid ligand having a 3-azabicyclo[3.1.0]hexane core. An example of a 'magic methyl' giving a 35-fold improvement in binding” (Bioorg Med Chem Lett, 2011):
Activity calls are given as the source filed them. No cut-off for these calls is given here.

Legend:
[1] = Binding affinity to dog kappa opioid receptor; design: species or system Canis lupus familiaris
CHO = experiment: Genotoxicity in CHO cells by micronucleus assay; assay type: toxicity, cell-based, Cricetulus griseus; details: chinese hamster
[2] = Binding affinity to dog delta opioid receptor; design: species or system Canis lupus familiaris
Canis familiaris = experiment: Antipruritic activity in dog with flea allergy dermatitis at 2 mg/kg, po upto 12 hrs; assay type: functional, organism-based; design: dose 2 mg/kg; details: Canis lupus familiaris
Mus musculus = experiment: Inhibition of morphine-induced antinociception in ICR mouse assessed as antagonism of morphine response to heat-induced tail flick at 10 mg/kg, sc preincubated for 15 mins before the addition of morphine assessed after 30 mins; assay type: functional; details: route subcutaneous
[3] = Binding affinity to dog mu opioid receptor; design: species or system Canis lupus familiaris
Mu-type opioid receptor [4] = molecular target: Mu-type opioid receptor (Cavia porcellus, UniProt P97266); experiment: Antagonist activity at mu opioid receptor in guinea pig longitudinal muscle myenteric plexus assessed as inhibition of DAMGO-induced contraction after 10 mins; assay type: functional; details: read-out: pA2 (converted)
Cytochrome P450 2D15 = molecular target: T1, Cytochrome P450 2D15 (Canis lupus familiaris, UniProt Q29473); experiment: Inhibition of dog CYP2D15; assay type: ADME
T1 sequence (Q29473 whole entry): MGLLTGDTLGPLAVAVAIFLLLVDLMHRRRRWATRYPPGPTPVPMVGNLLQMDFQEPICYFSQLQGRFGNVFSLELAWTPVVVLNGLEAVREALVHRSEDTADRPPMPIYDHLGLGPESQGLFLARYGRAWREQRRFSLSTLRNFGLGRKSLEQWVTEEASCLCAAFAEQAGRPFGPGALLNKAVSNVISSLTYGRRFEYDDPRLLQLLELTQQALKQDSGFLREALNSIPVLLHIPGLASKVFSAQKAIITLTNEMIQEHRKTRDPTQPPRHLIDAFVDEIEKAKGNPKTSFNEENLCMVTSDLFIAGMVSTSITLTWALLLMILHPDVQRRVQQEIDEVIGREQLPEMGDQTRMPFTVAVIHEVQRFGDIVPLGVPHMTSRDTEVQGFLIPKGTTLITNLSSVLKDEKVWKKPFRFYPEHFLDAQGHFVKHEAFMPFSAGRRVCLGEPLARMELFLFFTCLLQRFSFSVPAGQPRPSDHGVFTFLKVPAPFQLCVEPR

Mu-type opioid receptor [5] = molecular target: Mu-type opioid receptor (Homo sapiens, UniProt P35372); experiment: Displacement of [3H]DAMGO from human mu opioid receptor
Sequence of Mu-type opioid receptor (Homo sapiens, UniProt P35372) (P35372 whole entry): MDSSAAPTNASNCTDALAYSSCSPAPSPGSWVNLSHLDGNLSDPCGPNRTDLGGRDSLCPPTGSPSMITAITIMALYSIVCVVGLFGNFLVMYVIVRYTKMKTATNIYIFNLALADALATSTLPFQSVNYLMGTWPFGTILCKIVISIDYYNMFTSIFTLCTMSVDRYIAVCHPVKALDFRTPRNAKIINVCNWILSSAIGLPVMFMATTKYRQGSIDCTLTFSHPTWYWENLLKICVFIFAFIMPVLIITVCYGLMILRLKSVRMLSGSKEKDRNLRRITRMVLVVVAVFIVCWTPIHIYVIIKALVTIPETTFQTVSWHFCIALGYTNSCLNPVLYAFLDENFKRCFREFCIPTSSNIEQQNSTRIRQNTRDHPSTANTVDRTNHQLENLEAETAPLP

Sequence of Mu-type opioid receptor (Cavia porcellus, UniProt P97266) (P97266 whole entry): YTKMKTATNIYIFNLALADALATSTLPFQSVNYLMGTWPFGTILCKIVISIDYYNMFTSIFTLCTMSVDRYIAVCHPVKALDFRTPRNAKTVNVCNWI

SMILES | Ki [1] [nM] | Activity (CHO) | Ki [2] [nM] | Activity (Canis familiaris) | inhibition in vivo at 10 mg/kg (Mus musculus) [%] | Ki [3] [nM] | Kb (Mu-type opioid receptor [4]) [nM] | inhibition (INH) (Cytochrome P450 2D15) | Ki (Mu-type opioid receptor [5]) [nM]
C[C@]1(c2cccc(NS(C)(=O)=O)c2)[C@@H]2CN(CCCc3ccccc3)C[C@@H]21 | 94 | Non-toxic | 183 | Active | 89 | 4.1 | 10.7 | Active | 4.79
CS(=O)(=O)Nc1cccc([C@H]2[C@@H]3CN(CCCc4ccccc4)C[C@@H]32)c1 | 1580 | – | > 10000 | – | – | 379 | – | – | 168
